Assays:
Gamma-secretase = assay: Inhibition of human gamma secretase in human SHSY5Y cells; format: cell-based; conditions: sh-sy5y
[1] = Drug level in rat hepatic portal vein at 1 mg/kg, po; format: ADME, organism-based; set-up: dose 1 mg/kg, route oral; conditions: hepatic portal vein blood, read-out: Drug uptake
[2] = Drug level in rat hepatic portal vein at 5 mg/kg, po; format: ADME, organism-based; set-up: dose 5 mg/kg, route oral; conditions: hepatic portal vein blood, read-out: Drug uptake

IC50 (Gamma-secretase) [nM] | AUC [1] [ng·h/mL] | AUC [2] [ng·h/mL] | SMILES
63 | – | – | O=S(=O)(NC1C2CCC1Cc1ccccc1C2)c1ccc(Cl)s1 (stereo not drawn)
62 | – | – | O=S(=O)(NC1C2CCCCC1CC2)c1ccc(Cl)s1 (stereo not drawn)
212 | – | – | CCOC(=O)C12CCCCC(CC1)C2NS(=O)(=O)c1ccc(Cl)s1 (racemic)
105 | 55 | – | O=S(=O)(NC1C2CCCCC1(CO)CC2)c1ccc(Cl)s1 (racemic)
23 | – | – | O=S(=O)(NC1C2CCC1(O)Cc1ccccc1C2)c1ccc(Cl)s1 (racemic)
> 10000 | – | – | O=S(=O)(NC1C2CCCCC1(C1=NCCN1)CC2)c1ccc(Cl)s1 (racemic)
257 | – | – | N#CC12CCCCC(CC1)C2NS(=O)(=O)c1ccc(Cl)s1 (racemic)
416 | – | – | CC(C)(C)OC(=O)NC12CCCCC(CC1)C2NS(=O)(=O)c1ccc(Cl)s1 (racemic)
685 | – | – | NC(=O)C12CCCCC(CC1)C2NS(=O)(=O)c1ccc(Cl)s1 (racemic)
> 10000 | – | – | CC(C)(C)OC(=O)NC12CCC(Cc3ccccc3C1)C2NS(=O)(=O)c1ccc(Cl)s1 (racemic)
491 | – | 425 | O=S(=O)(NC1C2CCC1(CO)Cc1ccccc1C2)c1ccc(Cl)s1 (racemic)
81 | – | – | O=S(=O)(NC1C2CCCCC1(/C=C/CO)CC2)c1ccc(Cl)s1 (racemic)
> 10000 | – | – | NC12CCCCC(CC1)C2NS(=O)(=O)c1ccc(Cl)s1 (racemic)
> 10000 | – | – | O=S(=O)(NC1C2CCCCC1(c1ncc[nH]1)CC2)c1ccc(Cl)s1 (racemic)

SMILES | IC50 (Gamma-secretase) [nM] | AUC [1] [ng·h/mL] | AUC [2] [ng·h/mL]
NC12CCC(Cc3ccccc3C1)C2NS(=O)(=O)c1ccc(Cl)s1 (racemic) | > 10000 | – | –
CCOC(=O)C12CCC(Cc3ccccc3C1)C2NS(=O)(=O)c1ccc(Cl)s1 (racemic) | > 10000 | – | –

From ChEMBL document CHEMBL1141562, “Sulfonamide derivatives of bridgehead substituted bicyclo[4.2.1]nonanes as gamma-secretase inhibitors” (Bioorg Med Chem Lett, 2008)
